These results are taken from US20170121295A1, “POLYCYCLIC LPA1 ANTAGONIST AND USES THEREOF” (AMIRA PHARMACEUTICALS, INC., priority 2010, published 2017).

Series [1] addresses T1, human LPA2 (Homo sapiens, UniProt Q9HBW0).
T1 construct: endogenous in cells; host or cells: BT-20 human breast cancer cells
The experiment in a line: LPA2 Calcium Flux Assay. Format: cell-based. To be noted: 100 nM LPA; read-out: Ca Flux IC50 LPA2. As for the experimental part: A vector containing the human LPA2 receptor cDNA was obtained from the Missouri S&T cDNA Resource Center (www.cdna.org). The full-length cDNA fragment for human LPA2 was obtained by PCR from the vector. The nucleotide sequence of the cloned human LPA2 was determined by sequencing and confirmed to be identical to the published human LPA2 sequence (NCBI accession number NM_004720). The cDNA was cloned into the pCDNA3.1 expression plasmid and transfected into B103 cells (Invitrogen Corp., USA) by seeding cells in a 96-well poly-D-lysine coated plate at 30,000-35,000 cells per well together with 0.2 μl lipofectamine 2000 and 0.2 μg of the LPA2 expression vector. Cells were cultured overnight in complete media before being assayed for LPA-induced Ca-influx.
BT-20 human breast cancer cells are seeded at 25,000-35,000 cells per well in 150 μl complete media on Poly-D-Lysine coated black-wall clear-bottom plates. Following an overnight culture, cells are washed once with PBS then serum starved for 4-6 hours prior to the assay. […] Cells are the stimulated by the addition of 100 nM LPA and intracellular Ca^2+ measured using the Flexstation 3 (Molecular Devices). IC50s are determined using Symyx Assay Explorer analysis of drug titration curves.
A general note: Calcium assays in cells follow changes in intracellular calcium, usually with a dye or a luminescent sensor.

The nature of series [2]: Metabolite identification in liver microsomes. It is filed as in vitro ADME, rat, dog, monkey, human. The conditions noted are these: human microsomes. As for the experimental part: To determine the qualitative metabolic profile, 30 μM of Compound 1 was incubated aerobically with rat, dog, monkey, or human liver microsomes (1 mg/mL). The incubations were performed in phosphate buffer at pH 7.4, 37° C., with the reaction initiated by the addition of P-NADPH, GSH and/or UDPGA (1, 5 and 2 mM final concentration, respectively). The reaction was terminated by the addition of 3 times incubation volume of acetonitrile after 60 minutes. The sample was centrifuged and the supernatant was transferred, nitrogen blow dried and reconstituted in 50% acetonitrile in water for LC/MS analysis.
LC/MS/MS analysis was carried out with a Sciex API-4000Qtrap tandem mass spectrometer (Applied Biosystems/Life Technologies, Carlsbad, Calif.) interfaced to a high-performance liquid chromatography system consisting of an Agilent 1200 series pump (Foster City, Calif.) and a LEAP Technologies PAL autoinjector (Carrboro, N.C.).
Parent/metabolite analysis was conducted in the positive ion mode (ESI) by multiple reaction monitoring of parent. The mobile phases contained 10 mM ammonium acetate in water with 0.05% formic acid (solvent A) and 10 mM ammonium acetate in 50% acetonitrile/50% methanol with 0.05% formic acid (solvent B). For Compound 1, the flow rate was maintained at 1 mL/min and the total run time was 2.5 min. Analytes were separated on a YMC ODS-AQ column (2.1×150 mm; 3 μm) and eluted with a linear gradient as follows: • 1. mobile phase was held for 0.5 min at 5% B, • 2. B was increased from 5% to 95% over the next 0.2 min, • 3. B was held constant for 1.3 min at 95%, and • 4. B was returned to the initial gradient conditions.
GSH adducts were investigated in microsomes, hepatocytes and rat bile using several methods including the neutral loss of pyroglutamate (129 Da) as well as a precursor ion scans of Compound 1 (105 Da, 318 Da and 438 Da).
For metabolite quantitation, the flow rate was maintained at 0.25 mL/min and the total run time was 60 min. Analytes were separated using a linear gradient as follows: • 1. mobile phase was held for 5 min at 5% B, • 2. […]
(Liver microsomes are vesicles of endoplasmic reticulum, rich in cytochrome P450 enzymes.)

Series [3] is described as follows: Pharmacokinetics in Sprague-Dawley Rats. To be noted: for mean dose adjusted exposure (AUC0-24/D) / Cmax / bioavailability / AUC(0-t): PO 1 mg/kg; for mean dose adjusted exposure (AUC0-24/D) / dose adjusted AUC value (AUC0-24/D) / Cmax / bioavailability: fasted; for Cmax / bioavailability / AUC(0-t): Sprague-Dawley, rat, plasma; for Cmax: read-out: maximal plasma concentration (Cmax); for bioavailability: read-out: apparent bioavailability; for AUC(0-t): fed, read-out: exposure (AUC0-24). Format: in vivo. As for the experimental part: The pharmacokinetics of Compound 1 and Compound 2 was assessed in male and female Sprague-Dawley rats (225-300 g at 10 weeks).
Compound 2 (1 mg/kg) was administered intravenously (IV) to fasted rats (n=3) as a solution in purified water via a bolus injection into the jugular vein (1 mg/mL; 1 mL/kg). Compound 1 (10 mg/kg) was administered orally (PO), to fasted (for at least 12 hours) or non-fasted rats (n=2 or 3) as a solution in 0.5% methylcellulose unless otherwise noted via an oral gavage to the stomach (3.33 mg/mL; 3 mL/kg). Non-fasted animals were fasted for at least 12 hours and then were given food ad libitum for 1 hour prior to dosing. Fasted animals were dosed 1, 10, 30, 100 or 300 mg/kg Compound 1 as a solution in 0.5% methylcellulose via an oral gavage to the stomach (0.69 mg/mL, 10 mg/mL, 33.3 mg/mL or 100 mg/mL) (n=2 or 3 per dose group). In a gastrointestinal study, rats were anesthetized and Compound 1 was administered directly to the duodenum, jcjunum or ilcum at 1 mg/kg in 0.5% methylcellulose.
Capsules were also administered with Compound 2. Capsules were size 9 gelatin (Torpac, San Diego, Calif.).
Blood samples (approximately 300 μL total blood) were taken from each rat via the jugular vein cannula at pre-dose, and an initial time of 5 or 15 min and then various time points up to 24 hours post-dose (10-11 samples per animal). Samples were collected on wet ice in tubes containing potassium EDTA. After each blood draw, the cannula was flushed with an equivalent volume of heparinized saline (0.1 mL at 40 units/mL). Plasma samples, prepared by centrifugation of whole blood, were stored frozen (−80° C.) prior to analysis.

What is called IC50 is the midpoint of a concentration-inhibition curve. The bioavailability is the share of a dose that reaches the circulation, judged against a reference dose that is usually intravenous.

Read-outs that look alike come from different tables or passages of the source. Bounds are passed on as bounds.

T1 sequence (Q9HBW0 whole entry): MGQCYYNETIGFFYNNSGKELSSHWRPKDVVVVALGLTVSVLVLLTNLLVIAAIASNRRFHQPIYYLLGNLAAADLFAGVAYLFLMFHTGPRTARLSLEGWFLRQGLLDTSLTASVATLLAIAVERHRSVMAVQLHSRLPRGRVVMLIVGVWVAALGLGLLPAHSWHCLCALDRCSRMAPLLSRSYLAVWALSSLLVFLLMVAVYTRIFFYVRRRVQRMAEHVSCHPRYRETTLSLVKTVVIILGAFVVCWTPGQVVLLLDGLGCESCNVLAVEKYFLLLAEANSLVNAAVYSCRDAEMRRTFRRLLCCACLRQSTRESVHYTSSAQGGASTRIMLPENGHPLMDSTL

Take `Cc1noc(-c2ccc(-c3ccc(C4(C(=O)O)CC4)cc3)cc2)c1NC(=O)O[C@H](C)c1ccccc1` [Compound 1, 1-{4′-[3-methyl-4-((R)-1-phenyl-ethoxycarbonylamino)-isoxazol-5-yl]-biphenyl-4-yl}-cyclopropanecarboxylic acid]: the IC50 in series [1] is above 1000 nM. In addition, the “GSH adduct in microsomes” value in series [2] is reported as “No GSH adduct was observed”. In addition, the values for the mean dose adjusted exposure (AUC0-24/D) in series [3] (females) and in series [3] (males) were 1.9 µg·h/mL and 2.1 µg·h/mL, respectively. Moreover, the “exposure in fed vs. fasted animals” value in series [3] (PO 10 mg/kg) is “slightly lower exposure in fed animals vs. fasted”. The “dose adjusted AUC value (AUC0-24/D)” value was 2.7 µg·h/mL in series [3] (PO 10 mg/kg, female rats) and 2.4 µg·h/mL in series [3] (PO 10 mg/kg, male rats). Further, the “dose proportionality of exposure” value was “greater than dose proportional” in series [3] (PO 30, 100 and 300 mg/kg); “dose proportional” in series [3] (PO doses of 1 and 10 mg/kg, suspension). The Cmax stood at 300 ng/mL in series [3] (female rats) and 400 ng/mL in series [3] (male rats). The values for the bioavailability in series [3] (female) and in series [3] (male) were 58% and 63%, respectively. For the same molecule, the AUC(0-t) in series [3] (female rats) worked out at 1400 ng·h/mL; in series [3] (male rats), 1600 ng·h/mL. The regional absorption result in series [3] (administered directly to duodenum, jejunum or ileum at 1 mg/kg) is reported as “good oral bioavailability along the entire gastrointestinal tract”. The molecule further displayed a dose normalized exposure in series [3] (oral, 10 mg/kg) of 5.1 µg·h/mL.
